From PubChem BioAssay AID1418 (Emory University Molecular Libraries Screening Center, 2008)
Active and inactive are the calls of the source. How the calls were made is not given here.

Each compound was assayed against Induced myeloid leukemia cell differentiation protein Mcl-1 (Homo sapiens) (UniProt Q07820) (assay: blockers of Bid binding to Mcl-1 – biochemical, TR-FRET, dose response (AID 1418)). Conditions: Mcl-1/Bid peptide binding, TR-FRET (europium/Dy647), 2 hr.
Chain of Induced myeloid leukemia cell differentiation protein Mcl-1 (Homo sapiens) (Q07820 whole entry, looked up): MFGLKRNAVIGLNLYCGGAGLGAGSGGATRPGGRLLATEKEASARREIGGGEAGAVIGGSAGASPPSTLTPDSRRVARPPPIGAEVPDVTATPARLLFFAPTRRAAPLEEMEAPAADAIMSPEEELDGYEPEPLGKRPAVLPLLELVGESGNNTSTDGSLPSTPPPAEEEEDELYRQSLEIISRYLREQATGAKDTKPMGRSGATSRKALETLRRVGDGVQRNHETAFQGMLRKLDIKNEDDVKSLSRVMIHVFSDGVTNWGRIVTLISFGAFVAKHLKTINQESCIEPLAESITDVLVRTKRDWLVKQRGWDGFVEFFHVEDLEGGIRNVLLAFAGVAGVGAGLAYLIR

Q: With Cc1cccc(CN2CCc3c(OCC(=O)NCc4ccco4)cccc3C2=O)c1 as the compound, how does the IC50 read?
A: Its IC50 is > 54 µM (inactive).

Q: With Nc1ccc(N)c(C(=O)O)c1 as the compound, how does the IC50 read?
A: Its IC50 is 28.7 µM.

Q: With O=[N+]([O-])/C(C(Cl)=C(Cl)Cl)=C(\Nc1ccc(F)cc1)n1cncn1 as the compound, how does the IC50 read?
A: Its IC50 is 17.4 µM.

Q: With N#Cc1ccccc1Cn1c(-c2cscn2)nc2ccccc21 as the compound, how does the IC50 read?
A: Its IC50 is > 54 µM (inactive).

Q: With O=C(CSc1nnc(COc2cccc3cccnc23)o1)N1CCc2ccccc21 as the compound, how does the IC50 read?
A: Its IC50 is “inactive”.

Q: With CC(=O)Nc1cccc(NC(=O)Nc2ccc(C(C)=O)cc2)c1 as the compound, how does the IC50 read?
A: Its IC50 is > 54 µM (inactive).

Q: Cn1c(CSc2nc3ccccc3s2)nnc1SCC(=O)NCc1cccnc1 was tested. Which IC50 did it give?
A: Its IC50 is > 54 µM (inactive).

Q: With CCc1ccc(C(CC(=O)c2ccc(Cl)cc2)C(=O)O)cc1 (stereo not given) as the compound, how does the IC50 read?
A: Its IC50 is > 54 µM (inactive).

Q: How did the IC50 turn out when CCOc1ccc(NC(=O)c2oc3ccccc3c2NC(=O)CC)cc1 was run?
A: The IC50 was > 54 µM (inactive).

Q: O=C1OC(c2cccs2)=N/C1=C/c1ccc(-c2cccc(C(=O)O)c2)o1 was tested. Which IC50 did it give?
A: The IC50 was 2.68 µM.

Q: How did the IC50 turn out when O=C(NNC(=O)c1ccccc1Cl)c1ccccc1Cl was run?
A: Its IC50 is > 54 µM (inactive).

Q: How did the IC50 turn out when CC1(c2cccc3ccccc23)NC(=O)N(CC(=O)NC2CCS(=O)(=O)C2)C1=O (stereo not given) was run?
A: The IC50 was > 54 µM (inactive).

Q: How did the IC50 turn out when Cc1ccc(OCc2ccc(C(=O)Nc3nc4ccccc4n3Cc3ccccc3)o2)c([N+](=O)[O-])c1 was run?
A: The IC50 was > 54 µM (inactive).

Q: With COc1ccccc1NC(=O)C(=O)N/N=C/c1ccc([N+](=O)[O-])s1 as the compound, how does the IC50 read?
A: Its IC50 is > 54 µM (inactive).

Q: O=C(O)CCCN1C(=O)/C(=C/c2cn(-c3ccccc3)nc2-c2cccs2)SC1=S was tested. Which IC50 did it give?
A: The IC50 was 6.58 µM.

Q: For c1ccc2[nH]c(CN3CCOCC3)nc2c1, which IC50 is on record?
A: Its IC50 is > 54 µM (inactive).

Q: How did the IC50 turn out when O=C(O)c1ccc(NS(=O)(=O)c2cccc3nsnc23)cc1 was run?
A: The IC50 was > 54 µM (inactive).

Q: With COc1ccc(-c2ccc(C#N)c(SCC(=O)Nc3sc4c(c3C#N)CCC4)n2)cc1OC as the compound, how does the IC50 read?
A: The IC50 was 0.67 µM.

Q: With COc1cc(Cl)c(C)cc1NC(=O)CCCn1c(=O)oc2ccccc21 as the compound, how does the IC50 read?
A: The IC50 was > 54 µM (inactive).

Q: With O=C(CN(C(=O)CNC(=O)c1ccco1)c1ccc2c(c1)OCO2)NC1CCCCC1 as the compound, how does the IC50 read?
A: The IC50 was > 54 µM (inactive).

Q: For CCc1ccc(NC(=S)NC2CC3CCC(C2)N3Cc2ccco2)cc1 (stereo not given), which IC50 is on record?
A: The IC50 was > 54 µM (inactive).

Q: For CC(C)(C)NC(=O)c1sccc1C(=O)O, which IC50 is on record?
A: Its IC50 is > 54 µM (inactive).

Q: C=C(C=O)CC1CC(O)[C@]2(C)OC3CC4OC5C[C@]6(C)O[C@]7(C)CCC8OC9C[C@]%10(C)OC%11C(C)=CC(=O)OC%11CC%10OC9C[C@@H](C)C8OC7CC6O[C@]5(C)CC5OC5C4OC3CC2O1 (stereo not given in full) was tested. Which IC50 did it give?
A: The IC50 was > 54 µM (inactive).

Q: With Cc1cc(C)nc(N(C#N)S(=O)(=O)c2ccccc2Cl)n1 as the compound, how does the IC50 read?
A: Its IC50 is > 54 µM (inactive).

Q: Cc1cccc(N(CC(=O)Nc2c(C)n(C)n(-c3ccccc3)c2=O)S(C)(=O)=O)c1 was tested. Which IC50 did it give?
A: The IC50 was > 54 µM (inactive).

Q: How did the IC50 turn out when O=C1c2cccc3cc([N+](=O)[O-])cc(c23)C(=O)N1/N=C/c1ccc(O)cc1O was run?
A: Its IC50 is 0.82 µM.

Q: With Cc1ccc(-n2cccc2/C=C2\C(=N)N3N=C(c4ccco4)SC3=NC2=O)cc1 as the compound, how does the IC50 read?
A: Its IC50 is 3.46 µM.

Q: How did the IC50 turn out when CN1CCN(C(=S)c2cn(Cc3ccccc3F)c3ccccc23)CC1 was run?
A: The IC50 was > 54 µM (inactive).

Q: Which IC50 does the source give for O=C(Nc1ccccc1)NC1CCS(=O)(=O)C1 (stereo not given) here?
A: The IC50 was > 54 µM (inactive).

Q: For O=C1C(=Cc2ccc(Br)o2)C(=O)c2ccccc21, which IC50 is on record?
A: The IC50 was 3.15 µM.

Q: Which IC50 does the source give for Cc1ccc(NC(=O)C(=O)NCc2ccc(/C=C(/C#N)C(=O)NCc3cccnc3)o2)cc1C here?
A: The IC50 was > 54 µM (inactive).

Q: How did the IC50 turn out when CN(C)S(=O)(=O)c1cccc(N=c2scc(-c3ccc4c(c3)NC(=O)CO4)n2CC2CCCO2)c1 (stereo not given) was run?
A: The IC50 was > 54 µM (inactive).

Q: Which IC50 does the source give for O=[N+]([O-])c1ccc(N/N=C/c2cn(Cc3ccc(F)cc3)c3ccccc23)nc1 here?
A: Its IC50 is > 54 µM (inactive).

Q: With COc1ccc(NC(=O)c2cc(C3CC3)on2)c(OC)c1 as the compound, how does the IC50 read?
A: The IC50 was > 54 µM (inactive).

Q: O=S(=O)(c1ccc(NC(=S)NCc2cccnc2)cc1)N1CCCCC1 was tested. Which IC50 did it give?
A: Its IC50 is > 54 µM (inactive).

Q: How did the IC50 turn out when N#C/C(=C\c1ccc(N2CCCC2)c([N+](=O)[O-])c1)c1nc2ccccc2[nH]1 was run?
A: The IC50 was 21.6 µM.

Q: With CCN1/C(=C/C=C/c2oc3ccc4ccccc4c3[n+]2CC)Oc2ccc3ccccc3c21 as the compound, how does the IC50 read?
A: Its IC50 is 0.58 µM.

Q: Which IC50 does the source give for Cc1nnc(Sc2cc(C(=O)NC3CC3)c3ccccc3n2)s1 here?
A: The IC50 was > 54 µM (inactive).

Q: For O=C(O)CCCCCN1C(=O)/C(=C\c2ccc(-c3ccc(Cl)cc3)o2)SC1=S, which IC50 is on record?
A: Its IC50 is 16.5 µM.

Q: For CCOC(=O)c1c2ccc(OCC(=O)N/N=C/c3ccc(C)cc3)cc2n2ccccc12, which IC50 is on record?
A: Its IC50 is 6.23 µM.

Q: For Cc1ccc2cccc(Oc3ncnc4scc(-c5ccc(Cl)cc5)c34)c2n1, which IC50 is on record?
A: The IC50 was > 54 µM (inactive).

Q: For CCOc1cc(N2CCOCC2)c(OCC)cc1NC(=O)CCS(=O)(=O)c1ccc(Cl)cc1, which IC50 is on record?
A: Its IC50 is > 54 µM (inactive).

Q: Which IC50 does the source give for O=C(CSc1nnc(-c2ccncc2)o1)NCc1ccccc1Cl here?
A: Its IC50 is > 54 µM (inactive).

Q: Which IC50 does the source give for CCCCN(Cc1cc2ccccc2[nH]c1=O)S(C)(=O)=O here?
A: The IC50 was > 54 µM (inactive).

Q: How did the IC50 turn out when CC(C)(C)CC(=O)O/N=C(\N)c1ccncc1 was run?
A: The IC50 was > 54 µM (inactive).

Q: With COc1ccc(NC(=O)Nc2nnc(CC(=O)NCc3ccccc3)s2)cc1 as the compound, how does the IC50 read?
A: Its IC50 is > 54 µM (inactive).

Q: CC(NC(=O)Cn1cnc2c1c(=O)n(C)c(=O)n2C)c1ccccc1 (stereo not given) was tested. Which IC50 did it give?
A: Its IC50 is > 54 µM (inactive).

Q: CCC(C)[C@H](NC(=O)Nc1ccccc1F)C(=O)O (stereo not given in full) was tested. Which IC50 did it give?
A: The IC50 was > 54 µM (inactive).

Q: Which IC50 does the source give for N=c1oc2cc(O)ccc2cc1C(=O)Nc1nc2ccccc2s1 here?
A: The IC50 was > 54 µM (inactive).

Q: With CNC(=O)CC1C(=O)N(c2ccc(OC)cc2)C(=S)N1NC(=O)c1cccc(F)c1 (stereo not given) as the compound, how does the IC50 read?
A: The IC50 was > 54 µM (inactive).

Q: O=C(CN1C(=O)c2ccccc2C1=O)N1CCCCC1 was tested. Which IC50 did it give?
A: Its IC50 is > 54 µM (inactive).

Q: How did the IC50 turn out when O=C(/C=C/c1cccc([N+](=O)[O-])c1)Nc1ccc(NC(=O)c2cccs2)cc1 was run?
A: The IC50 was 10.6 µM.

Q: For N#C/C(=C1/CCCCCN1)c1nc2ccccc2s1, which IC50 is on record?
A: The IC50 was > 54 µM (inactive).

Q: Which IC50 does the source give for Cc1cc(N2CC(C)OC(C)C2)n2cc(-c3ccccc3)nc2n1 (stereo not given) here?
A: The IC50 was > 54 µM (inactive).

Q: For CCOc1cc(N2CCOCC2)c(OCC)cc1NC(=O)CN1CCc2ccccc2C1, which IC50 is on record?
A: Its IC50 is > 54 µM (inactive).

Q: With CCS(=O)(=O)c1ccc(S(=O)(=O)CC)s1 as the compound, how does the IC50 read?
A: The IC50 was > 54 µM (inactive).

Q: O=C(NC(=S)Nc1ccc(S(=O)(=O)N2CCCCC2)cc1)c1cccs1 was tested. Which IC50 did it give?
A: The IC50 was > 54 µM (inactive).

Q: How did the IC50 turn out when CCOc1ccc(N/C(=C(/C(Cl)=C(Cl)Cl)[N+](=O)[O-])n2cncn2)cc1 was run?
A: The IC50 was > 54 µM (inactive).

Q: Which IC50 does the source give for NC(=S)n1[nH]c(-c2ccc([N+](=O)[O-])cc2)c(N=Nc2ccc(Cl)cc2)c1=O here?
A: Its IC50 is 0.56 µM.

Q: CSc1nc(C)cc(OCC(=O)n2nc(C)cc2C)n1 was tested. Which IC50 did it give?
A: The IC50 was > 54 µM (inactive).

Q: How did the IC50 turn out when C=CCc1ccc(OCCOCCOc2cccc3ccc(C)nc23)c(OC)c1 was run?
A: Its IC50 is > 54 µM (inactive).

Q: Which IC50 does the source give for O=c1oc2c(O)c(O)cc3c(=O)oc4c(O)c(O)cc1c4c23 here?
A: Its IC50 is 0.57 µM.

Q: With COCC(O)CSc1nc(C)[nH]c1[N+](=O)[O-] (stereo not given) as the compound, how does the IC50 read?
A: The IC50 was > 54 µM (inactive).

Q: How did the IC50 turn out when CCCCCCn1c(O)c(C=NCCN2CCOCC2)c(=O)[nH]c1=O was run?
A: Its IC50 is > 54 µM (inactive).

Q: How did the IC50 turn out when COc1ccc(NC(=O)CN2C(=O)/C(=C3\SC(=S)N(C4CCS(=O)(=O)C4)C3=O)c3ccccc32)cc1 (stereo not given) was run?
A: The IC50 was 0.72 µM.

Q: CCS(=O)(=O)N1CCN(C(C)CCc2ccccc2)CC1 (stereo not given) was tested. Which IC50 did it give?
A: Its IC50 is > 54 µM (inactive).

Q: Which IC50 does the source give for O=c1cc(-c2ccc([N+](=O)[O-])cc2)nc2cc(-c3ccc(Cl)cc3)[nH]n12 here?
A: The IC50 was 4.96 µM.

Q: Which IC50 does the source give for Cc1ccc(-c2nnc(SCC(=O)N/N=C/c3ccc(C)s3)n2-c2ccc(C)cc2)cc1 here?
A: The IC50 was > 54 µM (inactive).

Q: For O=[N+]([O-])c1cc(Cl)cc(/C=N/NC(=S)Nc2ccc(S(=O)(=O)N3CCOCC3)cc2)c1O, which IC50 is on record?
A: The IC50 was > 54 µM (inactive).

Q: For Cc1cc(=O)c2ccc(C(F)(F)F)cc2[nH]1, which IC50 is on record?
A: The IC50 was > 54 µM (inactive).
